Experimental data as given in patent publication US6037333A, “Microbe-inhibiting compositions” (Trustees of Tufts College, priority 1998, dated 2000).

What was measured:
[1] = test system: Acanthamoeba-conditioned medium (ACM); assay: CPE assay with Acanthamoeba-conditioned medium (ACM); type: cell-based
Description: To determine whether the mechanism modulating the CPE produced by intact amoeba and amoeba-conditioned medium (ACM) are distinct, CPE and assays were also performed using ACM in the presence and the absence of saccharides. To produce ACM, exponentially growing parasites (>95% trophozoites) in PYG media (Proteose Peptone-yeast extract-glucose , J. T. Bornes et al., J. Parasitol. 56:904-906, 1970) were rinsed twice with SFB medium and incubated in serum-free SFB medium at concentrations between 2×10^5 to 1×10^6 cells/ml in a CO2 incubator for 24 hours. After removing the parasites by centrifugation, each supernatant was analyzed for its ability to induce CPE. Saccharides (α-Man and GIcNAc, 50 mM) were added either to the ACM after it was produced or to serum-free medium used to produce an ACM. The ACM produced in the presence of the saccharides was also analyzed after removal of the saccharides by centrifugation through Centricon 3 microconcentrators (Amicon Inc., Beverly, Mass.).
To determine the role of the parasitic secretory factors in the cytopathogenic mechanism, chromium release and CPE assays were performed using ACM. In this study, parasites were incubated in the SFB media for 24 hours, centrifuged to remove parasites and the conditioned medium was tested for its ability to produce cytolysis and CPE. The ACM produced remarkable CPE. […] Approximately 6 to 8 hours following the incubation of the monolayer with the ACM, the cell sheet at the edges of the monolayer began to lift and roll inwards and eventually the entire monolayer lifted en bloc from the dish. These observations were similar to those seen when the monolayers were incubated with trophozoites in the presence of α-Man. Unlike the CPE induced by intact amoeba, the CPE induced by the ACM was not inhibited by either α-Man or GlcNAc when the sugars were added to the ACM after it was produced. In the next set of experiments, ACM was produced in the presence of α-Man or GIcNAc and was tested for CPE-inducing activity. […] In addition, the filtrate and retentate obtained after filtering the ACM in Centricon 3 microconcentrators were tested for CPE-inducing activity. When the ACM was produced in the absence of either sugar, substantially all of the CPE-inducing activity was found in the retentate obtained after Centricon filtration.

Acanthamoeba = assay: Acanthamoeba-induced CPE assay, primary cultures of corneal epithelium; type: cell-based; conditions: primary cultures as target cells
Description: In vitro cytopathic assays were performed using cell cultures of corneal epithelium as target cells. Primary cell cultures of rabbit corneal epithelium were prepared according to published protocols (M. M. Jumblatt, Invest. Opthalmol. Visual Sci. 24:1139-43, 1983) using rabbit eyes from Pel-Freez Biologicals (N. Panjwani et al., Invest. Opthalmol. Visual Sci. 31:689-695, 1990) (Rogers, AK). Generally, seventy-five eyes were processed at a time. Primary cultures have limited life span and can only be passaged 2 to 3 times without significant alteration in cell morphology.
To characterize the role of carbohydrate-mediated host-parasite interactions in the Acanthamoeba-induced cytotoxicity of host cells, in vitro cytopathic assays were performed using both primary and immortalized cultures of corneal epithelium as host cells. Immortalized cells were assayed as confluent cultures in 24-well plates, and primary cells were assayed as confluent cells in 35-mm dishes or 6-well plates.
The parasites (>95% trophozoites) were rinsed three times in a serum-free Eagle's minimum essential medium supplemented with 0.4% bovine serum albumin (SFB) and aliquots of the parasite suspension (0.2×10^5 to 1×10^6 parasites/ml SFB medium, 300 μl/well for 24-well plates and 500 μl/well for 6-well plates or 35-mm dishes) were added to wells of confluent epithelial cultures which had been rinsed and preincubated in SFB medium for 2 hours. The plates were incubated at 37° C. in a CO2 incubator and periodically examined under a phase-contrast microscope for the presence of cell-free plaques in the monolayer for up to 28-30 hours. Control wells contained host cells without the parasites. At the end of the incubation period, the cultures were stained with Giemsa (Diff-Quik, Dade Diagnostic Inc., Aguada, PR). Approximate cell density in each well was estimated by scanning the stained plates in a calibrated, computer-assisted Bio-Image Scanner (Millipore, Ann Arbor, Mich.). Cytopathic effect (CPE) was expressed as percentage of the optical density by the following formula: [formula]
Primary cultures were less susceptible to amoeba-induced CPE, requiring 1×10^6 parasites/ml to completely destroy the monolayer within 24 hours. This parasite concentration was five times higher than that required to produce the same effect when immortalized cultures were used as target host cells.

SMILES: CO[C@H]1O[C@H](CO)[C@@H](O)[C@H](O)[C@@H]1O [Methyl-α-D-mannopyranoside]
- CPE-inducing activity of ACM produced in SFB containing the saccharide ([1]; saccharide 50 mM in medium used to produce ACM): strongly induced CPE
- Inhibition of ACM-induced CPE ([1]; sugar (50 mM) added to the ACM after it was produced): not inhibited
- Inhibition of amoeba-induced CPE (Acanthamoeba): inhibited CPE
